According to PubChem BioAssay (NCI):
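Cultured in 96-well plates, cells were exposed to test compound for 48 hours across five concentrations. Abbreviation: GI50, concentration required for 50% inhibition of growth. TGI: total growth inhibition.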

How the values were obtained:
Assay in all cases: NCI anticancer screen, dose series, 48 h
786-0 renal = system: 786-0 renal
A498 renal = system: A498 renal
A549 NSCLC = system: A549 NSCLC
ACHN renal = system: ACHN renal
BT-549 breast = system: BT-549 breast
CAKI-1 renal = system: CAKI-1 renal
CCRF-CEM leukemia = system: CCRF-CEM leukemia
COLO 205 colon = system: COLO 205 colon
DU-145 prostate = system: DU-145 prostate
EKVX NSCLC = system: EKVX NSCLC
HCC-2998 colon = system: HCC-2998 colon
HCT-116 colon = system: HCT-116 colon
HCT-15 colon = system: HCT-15 colon
HL-60(TB) leukemia = system: HL-60(TB) leukemia
HOP-62 NSCLC = system: HOP-62 NSCLC
HOP-92 NSCLC = system: HOP-92 NSCLC
HS 578T breast = system: HS 578T breast
HT29 colon = system: HT29 colon
IGROV1 ovarian = system: IGROV1 ovarian
K-562 leukemia = system: K-562 leukemia
KM12 colon = system: KM12 colon
LOX IMVI melanoma = system: LOX IMVI melanoma
M14 melanoma = system: M14 melanoma
MALME-3M melanoma = system: MALME-3M melanoma
MCF7 breast = system: MCF7 breast
MDA-MB-231 breast = system: MDA-MB-231 breast
MDA-MB-435 = system: MDA-MB-435
MOLT-4 leukemia = system: MOLT-4 leukemia
NCI-H226 lung = system: NCI-H226 lung
NCI-H23 lung = system: NCI-H23 lung
NCI-H460 lung = system: NCI-H460 lung
NCI-H522 lung = system: NCI-H522 lung
NCI/ADR-RES ovarian = system: NCI/ADR-RES ovarian
OVCAR-3 ovarian = system: OVCAR-3 ovarian
OVCAR-4 ovarian = system: OVCAR-4 ovarian
OVCAR-5 ovarian = system: OVCAR-5 ovarian
OVCAR-8 ovarian = system: OVCAR-8 ovarian
PC-3 prostate = system: PC-3 prostate
RPMI-8226 leukemia = system: RPMI-8226 leukemia
RXF 393 renal = system: RXF 393 renal
SF-268 CNS = system: SF-268 CNS
SF-295 CNS = system: SF-295 CNS
SF-539 CNS = system: SF-539 CNS
SK-MEL-2 melanoma = system: SK-MEL-2 melanoma
SK-MEL-28 melanoma = system: SK-MEL-28 melanoma
SK-MEL-5 melanoma = system: SK-MEL-5 melanoma
SK-OV-3 ovarian = system: SK-OV-3 ovarian
SN12C renal = system: SN12C renal
SNB-19 CNS = system: SNB-19 CNS
SNB-75 CNS = system: SNB-75 CNS
SW-620 colon = system: SW-620 colon
T-47D breast = system: T-47D breast
TK-10 renal = system: TK-10 renal
U251 CNS = system: U251 CNS
UACC-257 melanoma = system: UACC-257 melanoma
UO-31 renal = system: UO-31 renal

For `COc1cc2c(cc1O)c(=O)n(CCN(C)C)c1c3cc4c(cc3ncc21)OCO4`, the GI50 (786-0 renal) was < 10 nM, the TGI (786-0 renal) was 29.1 nM and the GI50 (A498 renal) was 23.4 nM. The TGI (A498 renal) was 88.2 nM, the GI50 (A549 NSCLC) was 35.6 nM and the TGI (A549 NSCLC) was 594 nM. For the same molecule, the GI50 (ACHN renal) was < 10 nM, the TGI (ACHN renal) was 46.4 nM and the GI50 (BT-549 breast) was 25 nM. The TGI (BT-549 breast) was 915 nM, the GI50 (CAKI-1 renal) was < 10 nM and the TGI (CAKI-1 renal) was 1240 nM. The GI50 (CCRF-CEM leukemia) was < 10 nM, the TGI (CCRF-CEM leukemia) was > 26800 nM and the GI50 (COLO 205 colon) was 1520 nM. For the same molecule, the TGI (COLO 205 colon) was 15200 nM, the GI50 (DU-145 prostate) was < 10 nM and the TGI (DU-145 prostate) was 1940 nM. The GI50 (EKVX NSCLC) was 239 nM, the TGI (EKVX NSCLC) was 3660 nM and the GI50 (HCC-2998 colon) was 109 nM. The TGI (HCC-2998 colon) was 398 nM, the GI50 (HCT-116 colon) was 11.7 nM and the TGI (HCT-116 colon) was 1250 nM. For the same molecule, the GI50 (HCT-15 colon) was 28.4 nM, the GI50 (HL-60(TB) leukemia) was < 10 nM and the TGI (HL-60(TB) leukemia) was 104 nM. For the same molecule, the GI50 (HOP-62 NSCLC) was < 10 nM, the TGI (HOP-62 NSCLC) was 44 nM and the GI50 (HOP-92 NSCLC) was 32.5 nM. It also gave a TGI (HOP-92 NSCLC) of 455 nM, a GI50 (HS 578T breast) of 366 nM and a TGI (HS 578T breast) of 26100 nM. The GI50 (HT29 colon) was 729 nM, the TGI (HT29 colon) was 7860 nM and the GI50 (IGROV1 ovarian) was 41.7 nM. The TGI (IGROV1 ovarian) was 8200 nM, the GI50 (K-562 leukemia) was 19 nM and the TGI (K-562 leukemia) was > 100000 nM. For the same molecule, the GI50 (KM12 colon) was 177 nM, the GI50 (LOX IMVI melanoma) was < 10 nM and the TGI (LOX IMVI melanoma) was 24.5 nM. The GI50 (M14 melanoma) was < 10 nM, the TGI (M14 melanoma) was 53.5 nM and the GI50 (MALME-3M melanoma) was 29.1 nM. The TGI (MALME-3M melanoma) was 192 nM, the GI50 (MCF7 breast) was < 10 nM and the TGI (MCF7 breast) was 1620 nM. For the same molecule, the GI50 (MDA-MB-231 breast) was 61.6 nM, the TGI (MDA-MB-231 breast) was 5580 nM and the GI50 (MDA-MB-435) was 19.5 nM. For the same molecule, the TGI (MDA-MB-435) was 258 nM, the GI50 (MOLT-4 leukemia) was < 10 nM and the TGI (MOLT-4 leukemia) was 27.1 nM. The GI50 (NCI-H226 lung) was 18.4 nM, the TGI (NCI-H226 lung) was 124 nM and the GI50 (NCI-H23 lung) was < 10 nM. The TGI (NCI-H23 lung) was 151 nM, the GI50 (NCI-H460 lung) was < 10 nM and the TGI (NCI-H460 lung) was 329 nM. For the same molecule, the GI50 (NCI-H522 lung) was < 10.4 nM, the TGI (NCI-H522 lung) was 154 nM and the GI50 (NCI/ADR-RES ovarian) was < 10 nM. The TGI (NCI/ADR-RES ovarian) was 526 nM, the GI50 (OVCAR-3 ovarian) was 38.8 nM and the TGI (OVCAR-3 ovarian) was 423 nM. For the same molecule, the GI50 (OVCAR-4 ovarian) was 51.1 nM, the TGI (OVCAR-4 ovarian) was 1740 nM and the GI50 (OVCAR-5 ovarian) was 325 nM. For the same molecule, the TGI (OVCAR-5 ovarian) was 2820 nM, the GI50 (OVCAR-8 ovarian) was < 11.6 nM and the TGI (OVCAR-8 ovarian) was 2520 nM. The GI50 (PC-3 prostate) was 243 nM, the TGI (PC-3 prostate) was 2510 nM and the GI50 (RPMI-8226 leukemia) was 24.2 nM. The TGI (RPMI-8226 leukemia) was 434 nM, the GI50 (RXF 393 renal) was 31.8 nM and the TGI (RXF 393 renal) was 116 nM. For the same molecule, the GI50 (SF-268 CNS) was < 10 nM, the TGI (SF-268 CNS) was 19900 nM and the GI50 (SF-295 CNS) was 51.7 nM. The TGI (SF-295 CNS) was 4020 nM, the GI50 (SF-539 CNS) was < 10 nM and the TGI (SF-539 CNS) was 22.3 nM. For the same molecule, the GI50 (SK-MEL-2 melanoma) was 136 nM, the TGI (SK-MEL-2 melanoma) was 360 nM and the GI50 (SK-MEL-28 melanoma) was 53 nM. The TGI (SK-MEL-28 melanoma) was 1010 nM, the GI50 (SK-MEL-5 melanoma) was 12.1 nM and the TGI (SK-MEL-5 melanoma) was 31.2 nM. For the same molecule, the GI50 (SK-OV-3 ovarian) was < 10.6 nM, the TGI (SK-OV-3 ovarian) was 87.6 nM and the GI50 (SN12C renal) was < 10 nM. For the same molecule, the TGI (SN12C renal) was 10500 nM, the GI50 (SNB-19 CNS) was < 10 nM and the TGI (SNB-19 CNS) was 5300 nM. The GI50 (SNB-75 CNS) was < 15.2 nM, the TGI (SNB-75 CNS) was 315 nM and the GI50 (SW-620 colon) was < 10 nM. The TGI (SW-620 colon) was > 33200 nM, the GI50 (T-47D breast) was < 10 nM and the TGI (T-47D breast) was 63.1 nM. For the same molecule, the GI50 (TK-10 renal) was 127 nM, the TGI (TK-10 renal) was 524 nM and the GI50 (U251 CNS) was < 10 nM. The TGI (U251 CNS) was 42.6 nM, the GI50 (UACC-257 melanoma) was 45.1 nM and the TGI (UACC-257 melanoma) was 285 nM. The GI50 (UO-31 renal) was < 12.4 nM and the TGI (UO-31 renal) was 170 nM.
